What was measured:
Settings in all cases: Table 1
S. aureus ATCC 29213 = test: MIC determination, S. aureus ATCC 29213; assay type: cell-based, Staphylococcus aureus
[1] = system: S. epidermidis ATCC 12228; test: MIC determination, S. epidermidis ATCC 12228; assay type: cell-based, Staphylococcus epidermidis
S. pneumoniae ATCC 6301 = test: MIC determination, S. pneumoniae ATCC 6301; assay type: cell-based, Streptococcus pneumoniae
E. faecalis ATCC 29212 = test: MIC determination, E. faecalis ATCC 29212; assay type: cell-based, Enterococcus faecalis
E. faecium CT-26 = test: MIC determination, E. faecium CT-26; assay type: cell-based, Enterococcus faecium
[2] = system: M. catarrhalis ATCC 25238; test: MIC determination, M. catarrhalis ATCC 25238; assay type: cell-based

Row | Compound | MIC S. aureus ATCC 29213 (S. aureus ATCC 29213) | MIC S. epidermidis ATCC 12228 [1] | MIC S. pneumoniae ATCC 6301 (S. pneumoniae ATCC 6301) | MIC E. faecalis ATCC 29212 (E. faecalis ATCC 29212) | MIC E. faecium CT-26 (E. faecium CT-26) | MIC M. catarrhalis ATCC 25238 [2]
1 | Oc1c(Cl)cc(Cl)c2cccnc12 [Compound 71] | 2 micrograms per ml | 2 micrograms per ml | 8 micrograms per ml | 64 micrograms per ml | 4 micrograms per ml | 0.12 micrograms per ml
2 | Oc1cccc2cccnc12 [Compound 73, 8-hydroxyquinoline] | 2 micrograms per ml | 1 micrograms per ml | 2 micrograms per ml | 64 micrograms per ml | 8 micrograms per ml | 0.25 micrograms per ml
3 | Oc1cccc2cccnc12 [Compound 74, 8-hydroxyquinoline] | 2 micrograms per ml | 1 micrograms per ml | 2 micrograms per ml | 32 micrograms per ml | 2 micrograms per ml | 1 micrograms per ml
4 | Oc1cccc2cccnc12 [Compound 77, 8-hydroxyquinoline] | 2 micrograms per ml | 1 micrograms per ml | 1 micrograms per ml | 8 micrograms per ml | 4 micrograms per ml | 2 micrograms per ml
5 | Oc1cccc2cccnc12 [Compound 78, 8-hydroxyquinoline] | 2 micrograms per ml | 1 micrograms per ml | 1 micrograms per ml | 8 micrograms per ml | 2 micrograms per ml | 2 micrograms per ml
6 | Oc1cccc2cccnc12 [Compound 79, 8-hydroxyquinoline] | 2 micrograms per ml | 2 micrograms per ml | 2 micrograms per ml | 8 micrograms per ml | 4 micrograms per ml | 2 micrograms per ml
7 | Oc1cccc2cccnc12 [Compound 80, 8-hydroxyquinoline] | 2 micrograms per ml | 1 micrograms per ml | 2 micrograms per ml | 4 micrograms per ml | 4 micrograms per ml | 2 micrograms per ml
8 | Oc1cccc2cccnc12 [Compound 81, 8-hydroxyquinoline] | 2 micrograms per ml | 1 micrograms per ml | 2 micrograms per ml | 8 micrograms per ml | 4 micrograms per ml | 2 micrograms per ml
9 | Oc1cccc2cccnc12 [Compound 82, 8-hydroxyquinoline] | 2 micrograms per ml | 2 micrograms per ml | 2 micrograms per ml | 8 micrograms per ml | 2 micrograms per ml | 4 micrograms per ml
10 | Oc1cccc2cccnc12 [Compound 83, 8-hydroxyquinoline] | 2 micrograms per ml | 1 micrograms per ml | 2 micrograms per ml | 4 micrograms per ml | 4 micrograms per ml | 2 micrograms per ml
11 | Oc1cccc2cccnc12 [Compound 84, 8-hydroxyquinoline] | 2 micrograms per ml | 1 micrograms per ml | 2 micrograms per ml | 8 micrograms per ml | 4 micrograms per ml | 4 micrograms per ml
12 | Oc1cccc2cccnc12 [Compound 85, 8-hydroxyquinoline] | 2 micrograms per ml | 1 micrograms per ml | 2 micrograms per ml | 4 micrograms per ml | 4 micrograms per ml | 2 micrograms per ml
13 | Oc1cccc2cccnc12 [Compound 86, 8-hydroxyquinoline] | 2 micrograms per ml | 1 micrograms per ml | 2 micrograms per ml | 8 micrograms per ml | 4 micrograms per ml | 2 micrograms per ml
14 | Oc1cccc2cccnc12 [Compound 87, 8-hydroxyquinoline] | 2 micrograms per ml | 1 micrograms per ml | 2 micrograms per ml | 8 micrograms per ml | 4 micrograms per ml | 1 micrograms per ml
15 | Oc1cccc2cccnc12 [Compound 88, 8-hydroxyquinoline] | 2 micrograms per ml | 2 micrograms per ml | 2 micrograms per ml | 8 micrograms per ml | 2 micrograms per ml | 2 micrograms per ml
16 | Oc1cccc2cccnc12 [Compound 89, 8-hydroxyquinoline] | 2 micrograms per ml | 1 micrograms per ml | 1 micrograms per ml | 8 micrograms per ml | 2 micrograms per ml | 2 micrograms per ml
17 | Oc1cccc2cccnc12 [Compound 90, 8-hydroxyquinoline] | 2 micrograms per ml | 2 micrograms per ml | 1 micrograms per ml | 8 micrograms per ml | 2 micrograms per ml | 2 micrograms per ml
18 | Oc1cccc2cccnc12 [Compound 91, 8-hydroxyquinoline] | 2 micrograms per ml | 1 micrograms per ml | 2 micrograms per ml | 8 micrograms per ml | 2 micrograms per ml | 1 micrograms per ml
19 | Oc1cccc2cccnc12 [Compound 92, 8-hydroxyquinoline] | 2 micrograms per ml | 1 micrograms per ml | 2 micrograms per ml | 8 micrograms per ml | 4 micrograms per ml | 1 micrograms per ml
20 | Oc1cccc2cccnc12 [Compound 93, 8-hydroxyquinoline] | 2 micrograms per ml | 1 micrograms per ml | 1 micrograms per ml | 8 micrograms per ml | 4 micrograms per ml | 1 micrograms per ml
21 | Oc1cccc2cccnc12 [Compound 94, 8-hydroxyquinoline] | 2 micrograms per ml | 1 micrograms per ml | 1 micrograms per ml | 8 micrograms per ml | 4 micrograms per ml | 2 micrograms per ml
22 | Oc1cccc2cccnc12 [Compound 95, 8-hydroxyquinoline] | 2 micrograms per ml | 1 micrograms per ml | 2 micrograms per ml | 8 micrograms per ml | 2 micrograms per ml | 1 micrograms per ml
23 | Oc1cccc2cccnc12 [Compound 96, 8-hydroxyquinoline] | 2 micrograms per ml | 1 micrograms per ml | 2 micrograms per ml | 8 micrograms per ml | 2 micrograms per ml | 1 micrograms per ml
24 | Oc1cccc2cccnc12 [Compound 97, 8-hydroxyquinoline] | 2 micrograms per ml | 1 micrograms per ml | 1 micrograms per ml | 8 micrograms per ml | 2 micrograms per ml | 1 micrograms per ml
25 | Oc1cccc2cccnc12 [Compound 98, 8-hydroxyquinoline] | 2 micrograms per ml | 1 micrograms per ml | 1 micrograms per ml | 8 micrograms per ml | 4 micrograms per ml | 1 micrograms per ml
26 | Oc1cccc2cccnc12 [Compound 99, 8-hydroxyquinoline] | 2 micrograms per ml | 1 micrograms per ml | 2 micrograms per ml | 8 micrograms per ml | 2 micrograms per ml | 1 micrograms per ml

Reference: patent US7390806B2, “Antibiotics containing borinic acid complexes and methods of use” (Anacor Pharmaceuticals, Inc., priority 2002, dated 2008)
